ChEMBL document CHEMBL1129446, “Hydroxamic acid-based bisubstrate analog inhibitors of Ras farnesyl protein transferase” (J Med Chem, 1996)

The molecules below were run against Protein farnesyltransferase (Sus scrofa) (assay: In vitro activity against Protein farnesyltransferase). Settings: read-out: I50.

| Structure (SMILES) | IC50 [µM] |
| --- | --- |
| CC(C)C[C@H](NC(=O)[C@@H](NC(=O)[C@H](CC(=O)N(C)O)NC(=O)OC(C)(C)C)C(C)C)C(=O)N[C@@H](CO)C(=O)O | > 360 |
| CSCC[C@@H](NC(=O)[C@@H](NC(=O)[C@@H](NC(=O)CC(=O)N(O)C/C=C(\C)CC/C=C(\C)CCC=C(C)C)C(C)C)C(C)C)C(=O)O | 30.5 |
| CC(C)C[C@H](NC(=O)[C@@H](NC(=O)[C@H](CC(=O)N(C)OCc1ccccc1)NC(=O)OC(C)(C)C)C(C)C)C(=O)N[C@@H](CO)C(=O)O | > 360 |
| CC(C)=CCC/C(C)=C/CC/C(C)=C/CN(O)C(=O)CCC(=O)N[C@H](C(=O)N[C@@H](CC(C)C)C(=O)N[C@@H](CO)C(=O)O)C(C)C | 42.5 |
| CSCC[C@H](NC(=O)[C@@H](NC(=O)[C@@H](NC(=O)CC(=O)N(O)CC/C=C(\C)CC/C=C(\C)CCC=C(C)C)C(C)C)C(C)C)C(=O)O | 5.6 |

The remaining lines, values ahead:

| IC50 [µM] | Structure (SMILES) |
| --- | --- |
| > 360 | CC(C)C[C@H](NC(=O)[C@@H](NC(=O)[C@@H](N)CC(=O)N(C)O)C(C)C)C(=O)N[C@@H](CO)C(=O)O |
| 0.33 | CSCC[C@H](NC(=O)[C@@H](NC(=O)[C@@H](NC(=O)CC(=O)N(O)C/C=C(\C)CC/C=C(\C)CCC=C(C)C)C(C)C)C(C)C)C(=O)O |
| > 360 | CC(C)C[C@H](NC(=O)[C@@H](NC(=O)[C@@H](N)CC(=O)N(C)OCc1ccccc1)C(C)C)C(=O)N[C@@H](CO)C(=O)O |
